In US7026514B2, “Compounds used to treat alcoholism” (Garbil Pharma Investigacion Chile Ltda., priority 2001, dated 2006):

What was measured:
[1] = tested on: metabolism of acetaldehyde; test: Assessment of disulfiram-like adverse effect (blood acetaldehyde after ethanol, gas chromatography); assay type: in vivo, Wistar male rats
Procedure: The possible disulfiram-like adverse effect of N,N′-bis(3-aminopropyl)cyclohexane-1,4-diamine tetramethanesulfonate monohydrate was studied by gas-chromatographic measurements of the blood concentration of acetaldehyde in standard Wistar male rats, after the intraperitoneal administration of 2.76 g/kg of ethanol in the form of 10% (v/v) aqueous solution. Blood samples were taken from the tail (0.5, 1.0 and 2.0 h after ethanol administration) and from the suprahepatic vein (2.0 h after ethanol administration).

[2] = tested on: genetically-alcoholic rats, UChB strain; test: Anti-alcoholism activity during a post-treatment period (27 days); assay type: in vivo, Wistar rats; conditions: 27 days after the 30-day treatment at 40 mg/kg
Procedure: (§1) The effect of the administration of N,N′-bis(3-aminopropyl)-cyclohexane-1,4-diamine tetramethanesulfonate monohydrate to Wistar rats of both sexes belonging to the UChB strain, at a dose of 40 mg/kg during a treatment period of 30 days, was assessed in an experiment analogous to the one of Example 4. Individual consumptions of alcohol and water, measured daily, were grouped in cycles of 3 consecutive days, thus reducing data to ten average values.
The effect of the administration of N,N′-bis(3-aminopropyl)-cyclohexane-1,4-diamine tetramethanesulfonate monohydrate to Wistar rats of both sexes belonging to the UChB strain, during a post-treatment period of 27 days (9 cycles of 3 days) after the prolonged treatment of Example 5, was assessed in an analogous experiment. […] Therefore, the effect of N,N′-bis(3-aminopropyl)-cyclohexane-1,4-diamine tetramethanesulfonate monohydrate lasts substantially for a long time after a prolonged treatment, without recovering the initial levels of alcohol/water consumption.

[3] = tested on: genetically-alcoholic rats, UChB strain; test: Anti-alcoholism activity during a prolonged treatment period (30 days); assay type: in vivo, Wistar rats; conditions: 40 mg/kg, treatment period of 30 days
Text: (§2) As an animal model of alcoholic mammals, including human beings, adult Wistar rats of both sexes, belonging to the UChB strain were used. This strain of rats is the result of a long selection at the University of Chile, and rats belonging to it are known to be volunteer consumers of 10% (v/v) aqueous alcohol (cf. J. Mardones and N. Segovia-Riquelme, “Thirty two years of selection of rats by ethanol preference”: UChA and UChB strains”, Neurobehav. Toxicol. and Teratol. 1983, vol. 5, pp. 171–178). Thus, the rats used in these experiments can be considered genetically alcoholic.
Rats were kept in individual cages at 22° C., with alternative 12 h periods of light and darkness. […] All experiments were double-blind, and results were analyzed using common statistical methods. As changes in alcohol consumption might be influenced by the eagerness of food and/or water intake, both the consumption of food and of water were measured and analyzed. […]
as §1

[4] = tested on: genetically-alcoholic rats, UChB strain; test: Anti-alcoholism activity in genetically-alcoholic rats (3 or 6 day treatment); assay type: in vivo, Wistar rats; conditions: for lowered alcohol consumption: vs reference period
Text: as §2
Rats were kept in individual cages at 22° C., with alternative 12 h periods of light and darkness. Besides unlimited access to food, they had ad libitum access to water and 10% (v/v) aqueous alcohol. All experiments were double-blind, and results were analyzed using common statistical methods. As changes in alcohol consumption might be influenced by the eagerness of food and/or water intake, both the consumption of food and of water were measured and analyzed. […] In each experiment the following three periods of time were considered:
a) A reference period, consisting of the three days previous to treatment. The measured consumption values were used as reference for comparison purposes.
b) A treatment period, consisting of the three or six days during which aqueous solutions of the tested compound were intra-gastrically administered, always at the same time of the day. N,N′-bis(3-aminopropyl)cyclohexane-1,4-diamine tetramethanesulfonate monohydrate was administered at two doses, 20 mg/kg of body weight and 40 mg/kg, using aqueous solutions of the tested compound of concentrations 10 g/L and 20 g/L, respectively. Dose of 20 mg/kg was tested both for 3 consecutive days and 6 consecutive days. Dose of 40 mg/kg was tested only for 3 consecutive days.
c) A post-treatment period, consisting of the three days immediate after the treatment period, during which measurement were taken in order to establish the duration of the effect and the reversibility of the changes.

Row | SMILES | levels of acetaldehyde in blood ([1]; 40 mg/kg oral 2, 6, 8 and 24 h before 2.76 g/kg i.p. ethanol, blood at 0.5, 1.0, 2.0 h) | block of the metabolism of acetaldehyde ([1]; conclusion from blood acetaldehyde after ethanol, disulfiram in a control test) | decrease of alcohol consumption at the end of the post-treatment period [2] [%] | decrease in alcohol consumption at the end of the treatment period [3] [%] | lowered alcohol consumption ([4]; 20 mg/kg intra-gastric for 6 days, first 6 hours after administration, p<0.01) [%] | decrease of alcohol consumption along the post-treatment period ([4]; 40 mg/kg for 3 days, three days after treatment) | lowered alcohol consumption ([4]; 40 mg/kg intra-gastric for 3 days) [%] | decreases of alcohol consumption in the period of 6-24 h ([4]; 6-24 h after administration, compared with first 6 h) | changes in the consumption of both food and water ([4]; 20 or 40 mg/kg, 3 or 6 days) | overall activity as anti-alcoholism agent ([4]; overall results of Example 4) | block of the metabolism of acetaldehyde ([1]; rat, in vivo)
1 | CS(=O)(=O)O.CS(=O)(=O)O.CS(=O)(=O)O.CS(=O)(=O)O.NCCCNC1CCC(NCCCN)CC1.O (centres unmarked) [N,N′-bis(3-aminopropyl)cyclohexane-1,4-diamine tetramethanesulfonate monohydrate] | did not raised levels of acetaldehyde in blood | does not block the metabolism of acetaldehyde significantly | 24 | 71 | 25 | this decrease was kept along the post-treatment period | 27 | smaller | not significant | substantial activity as anti-alcoholism agent | 
2 | CCN(CC)C(=S)SSC(=S)N(CC)CC [disulfiram, tetraethylthiuram disulfide, reference compound] |  |  |  |  |  |  |  |  |  |  | contrary to what happens with disulfiram
